Reference: patent US7893070B2, “Method of treating parturient placental mammals in order to reduce maternal and/or uterine exhaustion” (priority 2005, dated 2011)

How the values were obtained:
sows [1] = assay: Caffeine suppository to sows after birth of first piglet; indices of piglet health and birth interval; type: in vivo, swine
From the text: In commercial swine production, typically 8% of the fetuses are stillborn, and 12% of the newborn piglets die prior to weaning (SIVA, 2005). Oxygen deprivation during the birth process is an important causal factor for both stillbirths and neonatal mortality. An indicator for oxygen deprivation is umbilical (blood) pH. This pH is typically 7.4, but upon oxygen deprivation CO2 accumulates in the blood and tissues resulting in a drop in pH. If this drop is severe enough, it will result in the death of the fetus. A moderate drop in pH may not be lethal but may inflict sufficient metabolic damage such that it affects the health and fitness of the newborn and thus its chances of survival. Measurements of umbilical (blood) pH confirmed that this pH drops as the length of parturition increases. Previous work by Randall (1971) has shown a good correlation between umbilical pH and livability of piglets (FIG. 1).
Infrared radiation temperature is another indicator of metabolic health of a mammal. A strong correlation between infrared temperature and survival chances for newborn pigs has been shown. This infrared temperature was obtained by collecting piglets at birth, immediately drying them, and measuring infrared temperature. In a first experiment, 7 sows received a caffeine-comprising suppository (1-2 mg/kg BW, or 400-600 mg) after the birth of the first piglet in a litter. The indices of piglet health as described here above were compared to those of a control group of 6 sows. […] (P=0.04).

sows [2] = assay: 400 mg caffeine oral paste to sows after birth of first piglet; duration of parturition; type: in vivo, swine; conditions: 400 mg oral paste; controls 159 minutes
Experimental: In a second experiment, 19 sows received 400 mg of caffeine comprised in a paste for oral ingestion, in accordance with the invention, after the birth of the first piglet while 19 sows served as untreated controls.
Practically, some untreated animals delivered their litter expediently and with few problems, but there were a substantial number of mothers for whom parturition became a lengthy process.

[3] = Uptake of caffeine into blood (serum) of pregnant sows
Experimental: Blood samples were collected pre-administration and at multiple time points post administration through an ear-vein catheter such that the uptake of caffeine into the blood (serum) could be modelled. Besides the caffeine level, the levels of its main metabolites paraxanthine, theophylline, and theobromine were determined.
This pool was not modelled.

sows [4] = assay: 900 mg caffeine oral paste, Velddriel research station; stillbirth and piglet mortality; type: in vivo, swine; conditions: 900 mg oral paste
Experimental: The method of treatment according to the present invention was further tested at the Provimi research station in Velddriel, the Netherlands, in three farrowing groups. In the Velddriel facility farrowings are not attended by (veterinary) personnel and parturition is thus not actively managed. Stillbirth and mortality rates are thus in line with commercial practices.
Sows were assigned to treatment based on parity. Overall, 27 sows served as controls and 29 were treated in accordance with the present invention when they were expected to farrow in the next 8 hours. Treated sows were administered 900 mg of caffeine comprised in a paste for oral ingestion, in accordance with the invention.

[5] = Transfer of caffeine from the mother to piglets (blood at birth) and colostrum; type: in vivo, swine; conditions: 900 mg oral paste to sow; same time-point
From the text: In order to assess whether caffeine was transferred from the mother to the piglets, blood samples were collected from several piglets at the time of birth and samples from colostrum were taken. […] The concentrations found were dependent on the time relative to dosing the treatment composition. For piglets at birth, they were roughly ¼^th the concentration in the mother at that time-point, and in milk they were roughly ⅙^th the concentration in the mother at that time-point. Values observed were in the range of 0.1 to 1.5 mg/L.

sows [6] = assay: 900 mg caffeine oral paste, actively managed farm in Bieganow; type: in vivo, swine; conditions: for increase in feed consumption of sows: vs control
Experimental: The method of treatment according to the present invention was further tested at a well-managed farm in Bieganow, Poland. In this facility farrowings are attended by (veterinary) personnel and parturition is actively managed. As a result, stillbirth rates are extremely low (0.33 piglets per litter or 3% of the piglets).
At this farm, 89 sows comprising one farrowing group were available for the test. These sows were assigned to receive either a 900 mg of caffeine containing paste in accordance with the invention or no treatment, based on parity, body condition, and historical performance. The treatment composition was administered orally to selected sows when they were expected to farrow in the next 8 hours.

sows [7] = conditions: intravenous injection of 0.5 mg/50 kg bodyweight, cited from earlier work

SMILES: Cn1c(=O)c2c(ncn2C)n(C)c1=O [caffeine]
- increase of piglet umbilical (blood) pH (sows [1]; suppository 1-2 mg/kg BW (400-600 mg) vs control sows, P=0.03): 0.044±0.020 units
- increase of piglet infrared radiation temperature (sows [1]; suppository 1-2 mg/kg BW (400-600 mg) vs control sows, P=0.04): 0.60±0.29 °C
- numerical increase of birth interval between subsequent piglets (sows [1]; suppository, P=0.11 (control 9 minutes, P<0.01)): 3.6 minutes for each hour into parturition
- mean time interval between the birth of the first and 10th piglet (sows [2]): 110 min
- half-life ([3]; female, pig, in vivo): ~22 h
- peak blood concentration, second compartment ([3]; pregnant sows, 940 mg of caffeine administered (half that for the 470 mg dose)): ~5 µM
- time of peak blood concentration, second compartment ([3]; pregnant sows, post administration): 8 h
- bio-availability ([3]; pregnant sows, assuming caffeine distributed in 60% of body mass): 44%
- stillborn piglets per litter (sows [4]; expected to farrow in next 8 hours, control 0.89): 0.31 piglets per litter
- piglets died or euthanized for being weak after parturition (sows [4]; control 1.15): 0.48 piglets per litter
- caffeine concentration in milk relative to the concentration in the mother [5]: roughly ⅙
- caffeine concentration in piglets at birth relative to the concentration in the mother [5]: roughly ¼
- difference in stillbirths between treatment groups (sows [6]; 900 mg oral paste vs no treatment): no statistically significant differences
- assistance rate (sows [6]; 900 mg oral paste, control group 26%): 18%
- sows requiring medical care post-farrowing (sows [6]; 900 mg oral paste, control group seven sows (one died)): no sows required medical care
- increase in feed consumption of sows (sows [6]; first day post farrowing): 14%
- increase in feed consumption of sows (sows [6]; first five days post farrowing): 10%
- piglets heavier than controls at weaning (sows [6]; piglets from treated sows): 9%

SMILES: CC(C)NCC(O)COc1cccc2[nH]c3ccccc3c12 (centres unmarked) [carazolol]
- stillbirth rate (sows [7]; reduced from 8.3): 7.1%
- rate of deliveries lasting more than six hours (sows [7]; reduced from 14.5): 11.0%
